Laboratory results from US10570179B2, “Substituted urea depsipeptide analogs as activators of the CLPP endopeptidase” (priority 2016, dated 2020).
≈ marks a conversion by molar mass, not a printed value. Where two headings read alike, the source gives them in different places. Numbered stars: 1 amine (or outer) side, 2 acyl side, 3 side chain; on linkers, the order of the positions; unused ones are H or OH. Bridge positions count the residues as written; N and C are the ends. Square brackets hold non-standard residues; d marks the D form. Peptide text beside a SMILES is read from it. * marks the point of attachment. Piperazine(2S-CO,4-Me) = CN1CCN[C@H](C(=O)O)C1; Phe(3-Cl) = N[C@@H](Cc1cccc(Cl)c1)C(=O)O; Phe(3-Me) = Cc1cccc(C[C@H](N)C(=O)O)c1; NH(4-Cl-2-F-phenyl) = Fc1cc(Cl)ccc1N*; Pro(4R-Me) = C[C@H]1CN[C@H](C(=O)O)C1; Propanoyl(3-NMe2) = CN(C)CCC(=O)*; Hyp = O=C(O)[C@@H]1C[C@@H](O)CN1; NH(4-Me-phenyl) = Cc1ccc(N*)cc1; aThr = C[C@H](O)[C@H](N)C(=O)O; Pip = O=C(O)[C@@H]1CCCCN1; CO = O=C([*:1])[*:2]; X2 = Fc1cc(N*)ccc1Cl

How the values were obtained:
[1] = Microsomal metabolic stability; format: in vitro ADME, mouse
Description: Compounds were initially prepared by dissolving them into DMSO at a final concentration of 10 mM. NADPH regenerating solutions A and B and mouse liver microsomes (CD-1) were obtained from BD Gentest (Woburn, Mass.). Ninety-six well deep well plates were obtained from MidWest Scientific Inc (Valley Park, Mo.).
Sample preparation for microsomal stability was modified from methods of Di, L., et al., Int J Pharm. 2005 Jun. 13; 297(1-2):110-9. A set of incubation times of 0, 15, 30, 60, 120, and 240 minutes were used. Mouse liver microsomal solutions were prepared by adding 58 μL of concentrated human or mouse liver microsomes (20 mg/mL protein concentration) to 1.756 mL of 0.1 M potassium phosphate buffer (pH 7.4) and 5 μL of 0.5 M EDTA to make a 0.6381 mg/mL (protein) microsomal solution. NADPH regenerating agent contained 113 μL of NADPH A, 23 μL of NADPH B, and 315 μL of 0.1 M potassium phosphate buffer (pH 7.4). The diluted test compound solutions (2 μL) were each added directly to a 1.79 mL of liver microsomal solution. This solution was mixed and 90 μL was transferred to 6 time points plates (each in triplicate wells). For the time 0 plate, 225 μL of cold acetonitrile with internal standard ([…] warfarin) was added to each well, followed by addition of NADPH regenerating agent (22.5 μL) and no incubation. For other five time points' plate, NADPH regenerating agent (22.5 μL) was added to each well to initiate the reaction. The plates were incubated at 37° C. for the required time, followed by quenching of the reaction by adding 225 μL of cold acetonitrile with internal standard (4 μg/ml warfarin). All of the plates were sealed and mixed well at 600 rpm for 10 minutes followed by centrifugation at 4000 rpm for 20 minutes. The supernatants (120 μL) were transferred to analytical plates for analysis by LCMS. LCMS conditions were described in the materials and instrumentation section above. The metabolic stability is evaluated via the half-life from least-squares fit of the multiple time points based on first-order kinetics.

Solubility determination = format: physicochemical; conditions: for solubility kinetic at 10 min: 22 °C, aqueous buffer, kinetic from dmso stock
Description: Test compounds were synthesized and supplied by the Department of Chemical Biology and Therapeutics at St. Jude Children's Research Hospital (Memphis, Tenn.). LC-MS chromasolv grade acetonitrile (ACN) was purchased from Fisher Scientific (Loughborough, UK). LC-MS chromasolv grade formic acid was obtained from Sigma-Aldrich (St. Louis, Mo.). Milli-Q water as an ultrapure laboratory grade water was used in aqueous mobile phase.
Chromatographic separation was performed on an Acquity UPLC BEH C18 1.7 μm, 2.1×50 mm column (Waters Corporation, Milford, Mass.) using an Acquity ultra performance liquid chromatography system. The total flow rate was 0.9 mL/min. The sample injection volume was 10 μL. The UPLC column was maintained at 60° C. and the gradient program started at 90% A (0.1% formic acid in MilliQ H2O), changed to 70% A over 0.2 min, to 95% B (0.1% formic acid in ACN) over 1.4 minutes, held for 0.35 minutes, then to 90% A over 0.05 minutes.
Mass data was acquired with an Acquity SQD Mass Spectrometer. The mass spectrometer was operated in positive-ion mode with electrospray ionization. The conditions were as follows: capillary voltage 3.5 kV, cone voltage 30 V, source temperature 150° C., desolvation temperature 350° C., desolvation gas 500 L/hr, cone gas 25 L/hr. Data were acquired using Masslynx v. 4.1 and analyzed using the Quanlynx software suite. A full scan range from m/z=100-1000 in 0.2 s was used to acquire MS data. Both UV and Single ion recording mass spectrometry were used to determine the quantification of the samples.
Stock solutions were prepared by dissolving compounds into DMSO to yield a concentration of 10 mM. Stock solutions were stored at room temperature.
Calibration standards were made by adding stock solutions to DMSO for final concentrations of compounds at concentration of 100, 25, 6.25, 1.563, 0.391 and 0.098 μM.
Solubility test samples were made by adding stock solutions to 200 μL, of DPBS for final concentrations of compounds at 100 μM in a 96-well analytical plate (300 μL, maximum volume in each well). Samples were tested in triplicates. The plate was sealed, shaken at 600 rpm for 10 minutes, and then was centrifuged at 4000 rpm for 20 min at 22° C. 100 μL, of the supernatant was transferred to a new analytical 96-well plate and 10 μL, was injected onto the LCMS system.
Two calibration curves for solubility test samples were analyzed during the quantitation process. The linear regression of test compound peak areas was weighted by 1/x^2. […] Coefficient of determination (R^2) was used to evaluate the linearity of each calibration curve.

Plasma stability assay = format: in vitro ADME, human
Description: The plasma stability property of early drug discovery compounds can influence the in vivo efficacy of the test compounds/drugs. Human and/or mouse plasma degradation is determined using multiple time points to monitor the rate of disappearance of the parent compound during incubation.
Sample preparation for plasma stability was modified from Di et al. (2005) Int. J. Pharm. 297(1-2): 110-119. A set of incubation times of 0, 3, 24, and 48 hour were used. DMSO stock solutions of test compounds were prepared at 10 mM concentration. 1.8 μL of each test compound was each added directly to 1.8 mL of human/mouse plasma to get the final concentration of 10 μM. This compound/matrix was mixed and 70 μL was transferred to 8 time points plates (each in triplicate wells). For the Time 0 plate, 210 μL of cold acetonitrile with internal standard (4 μg/mL warfarin) was added to each well and no incubation needed. For other seven time points' plate, the plate was incubated at 37° C. for required time, followed by quenching of the reaction by adding 210 μL of cold acetonitrile with internal standard (4 μg/ml warfarin) to each well. All of the plates were sealed and mixed well at 600 rpm for 10 min and were centrifuged at 4000 rpm for 20 min. The supernatants (120 μL) were transferred to analytical plates for analysis by LCMS. Conditions for Waters ACQUITY-UPLC-MS-UV system was described separately. The plasma stability was evaluated via the half-life from least-squares fit of the multiple time points based on first-order kinetics.

Cc1cccc(C[C@H](NC(=O)Nc2ccc(Cl)c(F)c2)C(=O)N[C@@H]2C(=O)N3CCC[C@H]3C(=O)N3CCCC[C@H]3C(=O)N[C@@H](C)C(=O)N3C[C@H](C)C[C@H]3C(=O)O[C@H]2C)c1 [Compound 35, (S)-2-(3-(4-CHLORO-3-FLUOROPHENYL)UREIDO)-3-(M-TOLYL)-N-((2R,6S,8AS,14AS,20S,21S,23AS)-2,6,21-TRIMETHYL-5,8,14,19,23-PENTAOXOOCTADECAHYDRO-1H,5H,14H,19H-PYRIDO[2,1-I]DIPYRROLO[2,1-C:2′,1′-L][1]OXA[4,7,10,13]TETRAAZACYCLOHEXADECIN-20-YL)PROPANAMIDE] ({X2-CO}-[Phe(3-Me)][aThr]P[Pip]A[Pro(4R-Me)]; ester 2-C)
Mouse ([1]; CD-1, mouse, pH 7.4): 1.54 ± .545 h | μsol (μM) (Solubility determination): 0.9 ± .95 µM | solubility kinetic at 10 min (Solubility determination): 0.002 ± 0.002 µM (≈ 0.00165 µg/mL) | Human (Plasma stability assay; human, 10 μM): >50 h

C[C@@H]1C[C@H]2C(=O)O[C@@H](C)[C@H](NC(=O)[C@H](Cc3cccc(Cl)c3)NC(=O)Nc3ccc(Cl)cc3F)C(=O)N3CCC[C@H]3C(=O)N3CCN(C)C[C@H]3C(=O)N[C@@H](C)C(=O)N2C1 [Compound 33] ({NH(4-Cl-2-F-phenyl)-CO}-[Phe(3-Cl)][aThr]P[Piperazine(2S-CO,4-Me)]A[Pro(4R-Me)]; ester 2-C)
Mouse ([1]; CD-1, mouse, pH 7.4): 0.80 ± .805 h | μsol (μM) (Solubility determination): 17.2 ± 7.2 µM | solubility kinetic at 10 min (Solubility determination): 12.8 ± 2.8 µM (≈ 11 µg/mL) | Human (Plasma stability assay; human, 10 μM): >50 h

Cc1ccc(NC(=O)N[C@@H](Cc2cccc(C)c2)C(=O)N[C@H]2COC(=O)[C@@H]3C[C@@H](C)CN3C(=O)[C@H](C)NC(=O)[C@@H]3CN(C)CCN3C(=O)[C@@H]3CCCN3C2=O)cc1 [Compound 15, (S)-3-(M-TOLYL)-2-(3-(P-TOLYL)UREIDO)-N-((6AS,12S,15AS,17R,21S,23AS)-2,17,21-TRIMETHYL-6,11,15,20,23-PENTAOXOOCTADECAHYDRO-2H,6H,11H,15H-PYRAZINO[2,1-I]DIPYRROLO[2,1-C:2′,1′-L][1]OXA[4,7,10,13]TETRAAZACYCLOHEXADECIN-12-YL)PROPANAMIDE] ({NH(4-Me-phenyl)-CO}-[Phe(3-Me)]SP[Piperazine(2S-CO,4-Me)]A[Pro(4R-Me)]; ester 2-C)
Mouse ([1]; microsomal metabolic stability half-life, mouse liver microsomes): 2.28 ± 0.16 h | solubility kinetic at 10 min (Solubility determination; solubility in DPBS, 100 μM test samples, LCMS, read-out: LCMS): 57.2 ± 1.1 µM (≈ 45 µg/mL) | μsol (μM) (Solubility determination; solubility): 25.1 ± 1.7 µM | Human (Plasma stability assay; plasma stability half-life, human plasma, 37° C.): >50 h

Cc1cccc(C[C@H](NC(=O)Nc2ccc(Cl)cc2F)C(=O)N[C@H]2COC(=O)[C@@H]3C[C@@H](C)CN3C(=O)[C@H](C)NC(=O)[C@@H]3CCCCN3C(=O)[C@@H]3C[C@H](N)CN3C2=O)c1 [Compound 12, (S)—N-((2R,6S,8AS,14AS,16S,20S,23AS)-16-AMINO-2,6-DIMETHYL-5,8,14,19,23-PENTAOXOOCTADECAHYDRO-1H,5H,14H,19H-PYRIDO[2,1-I]DIPYRROLO[2,1-C:2′,1′-L][1]OXA[4,7,10,13]TETRAAZACYCLOHEXADECIN-20-YL)-2-(3-(4-CHLORO-2-FLUOROPHENYL)UREIDO)-3-(M-TOLYL)PROPANAMIDE]
Mouse ([1]; CD-1, mouse, pH 7.4): 2.34 ± 0.44 h | μsol (μM) (Solubility determination): 24.7 ± 3.7 µM | solubility kinetic at 10 min (Solubility determination): 37.5 ± 13 µM (≈ 30.9 µg/mL) | Human (Plasma stability assay; human, 10 μM): 38.58 h

Cc1cccc(C[C@H](NC(=O)Nc2ccc(Cl)cc2F)C(=O)N[C@@H]2C(=O)N3C[C@H](OC(=O)CCN(C)C)C[C@H]3C(=O)N3CCCC[C@H]3C(=O)N[C@@H](C)C(=O)N3C[C@H](C)C[C@H]3C(=O)O[C@H]2C)c1 [Compound 46, (2R,6S,8AS,14AS,16R,20S,21S,23AS)-20-((S)-2-(3-(4-CHLORO-2-FLUOROPHENYL)UREIDO)-3-(M-TOLYL)PROPANAMIDO)-2,6,21-TRIMETHYL-5,8,14,19,23-PENTAOXOOCTADECAHYDRO-1H,5H,14H,19H-PYRIDO[2,1-I]DIPYRROLO[2,1-C:2′,1′-L][1]OXA[4,7,10,13]TETRAAZACYCLOHEXADECIN-16-YL 3-(DIMETHYLAMINO)PROPANOATE] ({NH(4-Cl-2-F-phenyl)-CO}-[Phe(3-Me)][aThr][Hyp](Propanoyl(3-NMe2))[Pip]A[Pro(4R-Me)]; ester 2-C)
Mouse ([1]; CD-1, mouse, pH 7.4): 0.22 ± 0.0 h | μsol (μM) (Solubility determination): 12.1 ± 1.5 µM | solubility kinetic at 10 min (Solubility determination): 195 ± 27 µM (≈ 183 µg/mL) | Human (Plasma stability assay; human, 10 μM): 0.57 h
